Measurements: ChEMBL document CHEMBL1201862, “PubChem BioAssay data set” (2004)
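Interpolation was linear, between the two tested concentrations surrounding the appropriate level; five concentrations were tested over 48 hours in 96-well plates. Abbreviation: GI50, concentration required for 50% inhibition of growth.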 The source made the active and inactive calls. Cut-off read from the data, not from the text of the source: active = GI50 up to about 1.1 µM and inactive = higher.

How the values were obtained:
Assay in all cases: NCI-60 cell line screen, 48 h
TK-10 = test system: TK-10
DLD-1 = test system: DLD-1
UO-31 = test system: UO-31
M14 = test system: M14
DMS-114 = test system: DMS-114
LXFL 529 = test system: LXFL 529
SK-MEL-2 = test system: SK-MEL-2
HOP-92 = test system: HOP-92
HCT-116 = test system: HCT-116
EKVX = test system: EKVX
SK-MEL-28 = test system: SK-MEL-28
786-0 = test system: 786-0
Malme-3M = test system: Malme-3M
COLO 205 = test system: COLO 205
CAKI-1 = test system: CAKI-1
OVCAR-3 = test system: OVCAR-3
OVCAR-5 = test system: OVCAR-5
NCI-H522 = test system: NCI-H522
KM-20L2 = test system: KM-20L2
UACC-257 = test system: UACC-257
A549 = test system: A549
SF-295 = test system: SF-295
NCI-H226 = test system: NCI-H226
HCT-15 = test system: HCT-15
SK-MEL-5 = test system: SK-MEL-5
HL-60 = test system: HL-60
SK-OV-3 = test system: SK-OV-3
SNB-78 = test system: SNB-78
SF-539 = test system: SF-539
UACC-62 = test system: UACC-62
A498 = test system: A498
KM12 = test system: KM12
SW-620 = test system: SW-620
OVCAR-4 = test system: OVCAR-4
DMS-273 = test system: DMS-273
OVCAR-8 = test system: OVCAR-8
NCI-H460 = test system: NCI-H460
SN12C = test system: SN12C
ACHN = test system: ACHN
LOX IMVI = test system: LOX IMVI
SNB-75 = test system: SNB-75
SR = test system: SR
M19-MEL = test system: M19-MEL
NCI-H23 = test system: NCI-H23
SF-268 = test system: SF-268
HT-29 = test system: HT-29
RXF 393 = test system: RXF 393
HOP-62 = test system: HOP-62
K562 = test system: K562
HOP-18 = test system: HOP-18
MOLT-4 = test system: MOLT-4
U-251 = test system: U-251
SNB-19 = test system: SNB-19
RPMI-8226 = test system: RPMI-8226
HCC 2998 = test system: HCC 2998
IGROV-1 = test system: IGROV-1
CCRF-CEM = test system: CCRF-CEM

For `COC(=O)C1C=CCON2CCc3c(n(S(=O)(=O)c4ccccc4)c4ccccc34)C12` (configuration not stated), the GI50 (TK-10) was > 78.3 µM (inactive), the GI50 (DLD-1) was 10.7 µM (inactive) and the GI50 (UO-31) was 42.9 µM (inactive). For the same compound, the GI50 (M14) was 44.5 µM (inactive), the GI50 (DMS-114) was 41.2 µM (inactive) and the GI50 (LXFL 529) was 73.8 µM (inactive). The GI50 (SK-MEL-2) was > 100 µM (inactive), the GI50 (HOP-92) was > 80.7 µM (inactive) and the GI50 (HCT-116) was 39.3 µM (inactive). For the same compound, the GI50 (EKVX) was 41.5 µM (inactive), the GI50 (SK-MEL-28) was > 100 µM (inactive) and the GI50 (786-0) was > 87.1 µM (inactive). The GI50 (Malme-3M) was > 64.7 µM (inactive), the GI50 (COLO 205) was 33.5 µM (inactive) and the GI50 (CAKI-1) was 57.3 µM (inactive). The GI50 (OVCAR-3) was 33.7 µM (inactive), the GI50 (OVCAR-5) was > 100 µM (inactive) and the GI50 (NCI-H522) was 26.9 µM (inactive). The GI50 (KM-20L2) was 42.1 µM (inactive), the GI50 (UACC-257) was 50.1 µM (inactive) and the GI50 (A549) was 50.1 µM (inactive). The GI50 (SF-295) was 59.4 µM (inactive), the GI50 (NCI-H226) was > 46.2 µM (inactive) and the GI50 (HCT-15) was 50.8 µM. For the same compound, the GI50 (SK-MEL-5) was 34.4 µM (inactive), the GI50 (HL-60) was 27 µM (inactive) and the GI50 (SK-OV-3) was > 61.9 µM (inactive). For the same compound, the GI50 (SNB-78) was > 100 µM (inactive), the GI50 (SF-539) was > 12.8 µM (inactive) and the GI50 (UACC-62) was > 49.4 µM (inactive). The GI50 (A498) was > 100 µM (inactive), the GI50 (KM12) was 35.2 µM (inactive) and the GI50 (SW-620) was 14.8 µM (inactive). For the same compound, the GI50 (OVCAR-4) was > 31.6 µM (inactive), the GI50 (DMS-273) was 48.8 µM (inactive) and the GI50 (OVCAR-8) was 50.9 µM (inactive). For the same compound, the GI50 (NCI-H460) was 52.6 µM (inactive), the GI50 (SN12C) was 60 µM (inactive) and the GI50 (ACHN) was 65.3 µM (inactive). The GI50 (LOX IMVI) was 33.3 µM (inactive), the GI50 (SNB-75) was 79.3 µM (inactive) and the GI50 (SR) was 34.1 µM (inactive). For the same compound, the GI50 (M19-MEL) was 40.6 µM (inactive), the GI50 (NCI-H23) was > 90.4 µM (inactive) and the GI50 (SF-268) was > 100 µM (inactive). For the same compound, the GI50 (HT-29) was 43.4 µM (inactive), the GI50 (RXF 393) was > 67.5 µM (inactive) and the GI50 (HOP-62) was > 39.2 µM (inactive). For the same compound, the GI50 (K562) was 17.9 µM (inactive), the GI50 (HOP-18) was 64.6 µM (inactive) and the GI50 (MOLT-4) was 26.9 µM (inactive). For the same compound, the GI50 (U-251) was 25.2 µM (inactive), the GI50 (SNB-19) was > 46.6 µM (inactive) and the GI50 (RPMI-8226) was 14.5 µM (inactive). The GI50 (HCC 2998) was 51.5 µM (inactive), the GI50 (IGROV-1) was > 55.3 µM (inactive) and the GI50 (CCRF-CEM) was 32.5 µM (inactive).
